This note sets out measurements from patent US20240300932A1, “N-PHENYLIMINE DERIVATIVE AND PREPARATION METHOD AND USE THEREOF” (Guizhou University, priority 2023, published 2024).

Common to all, as to test: Post-emergence herbicidal activity test (stem and leaf spray, pot culture)
Common to all, as to type: in vivo
Details in all cases: 3 weeks after spraying

One test relates to Abutilon theophrasti. An outline of the steps: (§1)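 Activity is given as a 0–5 grade of fresh weight growth control, scored three weeks after a single stem-and-leaf spray. Weeds in farmland loam were treated at the 2- to 3-leaf stage at 10, 5 and 2.5 g/mu, with methyl oleate added as synergist.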
The subject of the next test is Amaranthus retroflexus. In outline: as §1
The subject of the next test is Echinochloa crusgalli. In outline: as §1
The next test concerns Portulaca oleracea. An outline of the steps: as §1
Another test has as its system Setaria viridis. An outline of the steps: as §1
The subject of the next test is Trifoliumre pensL. In outline:
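Pot-grown weeds in loam (pH 7), greenhouse at 20–30 °C, sprayed once post-emergence at the 2–3-leaf stage. Compound in acetone with Tween 80 plus methyl oleate oil (1.5 L/ha), applied at 10, 5 and 2.5 g/mu by spray tower. Effect scored 3 weeks after spraying, averaged over three repeats.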

For the molecule `O=C1C2=C(CCCC2)C(=O)N1c1cc(OCc2nnc(-c3ccc([N+](=O)[O-])cc3F)o2)c(Cl)cc1F` [Compound B20], the “Post-emergence herbicidal activity, A. theophrasti (grade)” value with Abutilon theophrasti (dosage 2.5 g/mu), in the test on Abutilon theophrasti (dosage 5 g/mu) and in the test with Abutilon theophrasti (dosage 10 g/mu) was 5 (Grade 5: the growth control rate is greater than or equal to 85%) throughout. Also, the “Post-emergence herbicidal activity, A. retroflexus (grade)” value with Amaranthus retroflexus (dosage 2.5 g/mu) is 4 (Grade 4: the growth control rate is greater than or equal to 60% and less than 85%); with Amaranthus retroflexus (dosage 5 g/mu), 5 (Grade 5: the growth control rate is greater than or equal to 85%); in the test with Amaranthus retroflexus (dosage 10 g/mu), 5 (Grade 5: the growth control rate is greater than or equal to 85%). The “Post-emergence herbicidal activity, E. crusgalli (grade)” value with Echinochloa crusgalli (dosage 2.5 g/mu) was 1 (Grade 1: the growth control rate is greater than or equal to 5% and less than 20%); in the test with Echinochloa crusgalli (dosage 5 g/mu), 2 (Grade 2: the growth control rate is greater than or equal to 20% and less than 40%); in the test on Echinochloa crusgalli (dosage 10 g/mu) it was 3 (Grade 3: the growth control rate is greater than or equal to 40% and less than 60%). Moreover, the “Post-emergence herbicidal activity, P. oleracea (grade)” value with Portulaca oleracea (dosage 2.5 g/mu), in the test on Portulaca oleracea (dosage 5 g/mu) and in the test with Portulaca oleracea (dosage 10 g/mu) was 5 (Grade 5: the growth control rate is greater than or equal to 85%) throughout. The “Post-emergence herbicidal activity, S. viridis (grade)” value was 2 (Grade 2: the growth control rate is greater than or equal to 20% and less than 40%) in the test on Setaria viridis (dosage 2.5 g/mu); 3 (Grade 3: the growth control rate is greater than or equal to 40% and less than 60%) in the test on Setaria viridis (dosage 5 g/mu); 4 (Grade 4: the growth control rate is greater than or equal to 60% and less than 85%) in the test with Setaria viridis (dosage 10 g/mu). Also, the “Post-emergence herbicidal activity, Trifoliumre pensL. (grade)” value was 4 (Grade 4: the growth control rate is greater than or equal to 60% and less than 85%) in the test with Trifoliumre pensL. (dosage 2.5 g/mu); 5 (Grade 5: the growth control rate is greater than or equal to 85%) with Trifoliumre pensL. (dosage 5 g/mu); 5 (Grade 5: the growth control rate is greater than or equal to 85%) in the test on Trifoliumre pensL. (dosage 10 g/mu).
Regarding `COc1ccccc1C(=O)COc1cc(N2C(=O)C3=C(CCCC3)C2=O)c(F)cc1Cl` [Compound C6, 2-(4-chloro-2-fluoro-5-(2-oxo-2-(2-methoxyphenyl)ethoxy)phenyl)-4,5,6,7-tetrahydro-1H-isoindole-1,3(2H)-dione], the “Post-emergence herbicidal activity, A. theophrasti (grade)” value with Abutilon theophrasti (dosage 2.5 g/mu), with Abutilon theophrasti (dosage 5 g/mu) and in the test on Abutilon theophrasti (dosage 10 g/mu) was 5 (Grade 5: the growth control rate is greater than or equal to 85%) in each case. The “Post-emergence herbicidal activity, A. retroflexus (grade)” value in the test on Amaranthus retroflexus (dosage 2.5 g/mu), in the test on Amaranthus retroflexus (dosage 5 g/mu) and in the test on Amaranthus retroflexus (dosage 10 g/mu) was 5 (Grade 5: the growth control rate is greater than or equal to 85%) throughout. Besides, the “Post-emergence herbicidal activity, E. crusgalli (grade)” value with Echinochloa crusgalli (dosage 2.5 g/mu) is 1 (Grade 1: the growth control rate is greater than or equal to 5% and less than 20%); in the test on Echinochloa crusgalli (dosage 5 g/mu), 2 (Grade 2: the growth control rate is greater than or equal to 20% and less than 40%); in the test with Echinochloa crusgalli (dosage 10 g/mu), 3 (Grade 3: the growth control rate is greater than or equal to 40% and less than 60%). Also, the “Post-emergence herbicidal activity, P. oleracea (grade)” value in the test with Portulaca oleracea (dosage 2.5 g/mu), with Portulaca oleracea (dosage 5 g/mu) and in the test with Portulaca oleracea (dosage 10 g/mu) was 5 (Grade 5: the growth control rate is greater than or equal to 85%) each time. For the same molecule, the “Post-emergence herbicidal activity, S. viridis (grade)” value with Setaria viridis (dosage 2.5 g/mu) was 2 (Grade 2: the growth control rate is greater than or equal to 20% and less than 40%); in the test on Setaria viridis (dosage 5 g/mu), 3 (Grade 3: the growth control rate is greater than or equal to 40% and less than 60%); with Setaria viridis (dosage 10 g/mu), 4 (Grade 4: the growth control rate is greater than or equal to 60% and less than 85%). The “Post-emergence herbicidal activity, Trifoliumre pensL. (grade)” value in the test with Trifoliumre pensL. (dosage 2.5 g/mu), in the test with Trifoliumre pensL. (dosage 5 g/mu) and in the test on Trifoliumre pensL. (dosage 10 g/mu) was 5 (Grade 5: the growth control rate is greater than or equal to 85%) in each case.
As to `O=C(COc1cc(N2C(=O)C3=C(CCCC3)C2=O)c(F)cc1Cl)c1cccc(F)c1` [Compound C7, 2-(4-chloro-2-fluoro-5-(2-oxo-2-(3-fluorophenyl)ethoxy)phenyl)-4,5,6,7-tetrahydro-1H-isoindole-1,3(2H)-dione], the “Post-emergence herbicidal activity, A. theophrasti (grade)” value in the test with Abutilon theophrasti (dosage 2.5 g/mu), in the test with Abutilon theophrasti (dosage 5 g/mu) and with Abutilon theophrasti (dosage 10 g/mu) was 5 (Grade 5: the growth control rate is greater than or equal to 85%) throughout. Also, the “Post-emergence herbicidal activity, A. retroflexus (grade)” value in the test on Amaranthus retroflexus (dosage 2.5 g/mu), in the test on Amaranthus retroflexus (dosage 5 g/mu) and in the test on Amaranthus retroflexus (dosage 10 g/mu) was 5 (Grade 5: the growth control rate is greater than or equal to 85%) throughout. The “Post-emergence herbicidal activity, E. crusgalli (grade)” value was 1 (Grade 1: the growth control rate is greater than or equal to 5% and less than 20%) in the test with Echinochloa crusgalli (dosage 2.5 g/mu); 2 (Grade 2: the growth control rate is greater than or equal to 20% and less than 40%) with Echinochloa crusgalli (dosage 5 g/mu); 3 (Grade 3: the growth control rate is greater than or equal to 40% and less than 60%) in the test on Echinochloa crusgalli (dosage 10 g/mu). Besides, the “Post-emergence herbicidal activity, P. oleracea (grade)” value with Portulaca oleracea (dosage 2.5 g/mu), in the test on Portulaca oleracea (dosage 5 g/mu) and with Portulaca oleracea (dosage 10 g/mu) was 5 (Grade 5: the growth control rate is greater than or equal to 85%) in each case. The “Post-emergence herbicidal activity, S. viridis (grade)” value with Setaria viridis (dosage 2.5 g/mu) is 2 (Grade 2: the growth control rate is greater than or equal to 20% and less than 40%); with Setaria viridis (dosage 5 g/mu), 3 (Grade 3: the growth control rate is greater than or equal to 40% and less than 60%); in the test with Setaria viridis (dosage 10 g/mu), 4 (Grade 4: the growth control rate is greater than or equal to 60% and less than 85%). Besides, the “Post-emergence herbicidal activity, Trifoliumre pensL. (grade)” value with Trifoliumre pensL. (dosage 2.5 g/mu), in the test on Trifoliumre pensL. (dosage 5 g/mu) and with Trifoliumre pensL. (dosage 10 g/mu) was 5 (Grade 5: the growth control rate is greater than or equal to 85%) in each case.
As to `O=C(CCl)Nc1cc(N2C(=O)C3=C(CCCC3)C2=O)c(F)cc1Cl` [Compound D2, 2-chloro-N-(2-chloro-5-(1,3-dioxo-1,3,4,5,6,7-hexahydro-2H-isoindole-2-yl)-4-fluorophenyl)acetamide], the “Post-emergence herbicidal activity, A. theophrasti (grade)” value in the test on Abutilon theophrasti (dosage 10 g/mu) is on record as 5 (Grade 5: the growth control rate is greater than or equal to 85%). In addition, in the test on Amaranthus retroflexus (dosage 10 g/mu), the “Post-emergence herbicidal activity, A. retroflexus (grade)” value is listed as 5 (Grade 5: the growth control rate is greater than or equal to 85%). Also, the “Post-emergence herbicidal activity, E. crusgalli (grade)” value with Echinochloa crusgalli (dosage 10 g/mu) was 3 (Grade 3: the growth control rate is greater than or equal to 40% and less than 60%). In addition, in the test with Portulaca oleracea (dosage 10 g/mu), the “Post-emergence herbicidal activity, P. oleracea (grade)” value is 5 (Grade 5: the growth control rate is greater than or equal to 85%). Moreover, the “Post-emergence herbicidal activity, S. viridis (grade)” value in the test with Setaria viridis (dosage 10 g/mu) is 3 (Grade 3: the growth control rate is greater than or equal to 40% and less than 60%). Further, the “Post-emergence herbicidal activity, Trifoliumre pensL. (grade)” value with Trifoliumre pensL. (dosage 10 g/mu) is given as 5 (Grade 5: the growth control rate is greater than or equal to 85%).
In the case of `CC(Br)C(=O)Nc1cc(N2C(=O)C3=C(CCCC3)C2=O)c(F)cc1Cl` (stereo not drawn) [Compound D3, 2-bromo-N-(2-chloro-5-(1,3-dioxo-1,3,4,5,6,7-hexahydro-2H-isoindol-2-yl)-4-fluorophenyl)propionamide], the “Post-emergence herbicidal activity, A. theophrasti (grade)” value in the test with Abutilon theophrasti (dosage 10 g/mu) is given as 5 (Grade 5: the growth control rate is greater than or equal to 85%). Besides, in the test on Amaranthus retroflexus (dosage 10 g/mu), the “Post-emergence herbicidal activity, A. retroflexus (grade)” value is 5 (Grade 5: the growth control rate is greater than or equal to 85%). The “Post-emergence herbicidal activity, E. crusgalli (grade)” value in the test on Echinochloa crusgalli (dosage 10 g/mu) is 3 (Grade 3: the growth control rate is greater than or equal to 40% and less than 60%). Also, the “Post-emergence herbicidal activity, P. oleracea (grade)” value with Portulaca oleracea (dosage 10 g/mu) is reported as 5 (Grade 5: the growth control rate is greater than or equal to 85%). Also, the “Post-emergence herbicidal activity, S. viridis (grade)” value in the test on Setaria viridis (dosage 10 g/mu) was 3 (Grade 3: the growth control rate is greater than or equal to 40% and less than 60%). Besides, in the test on Trifoliumre pensL. (dosage 10 g/mu), the “Post-emergence herbicidal activity, Trifoliumre pensL. (grade)” value is listed as 5 (Grade 5: the growth control rate is greater than or equal to 85%).
